What was measured:
[1] = biological target: T1, recombinant human CB1 receptors (Homo sapiens, UniProt P21554); assay: Binding to recombinant human CB1 receptors ([3H]-SR-141716A displacement, HEK293 membranes); settings: [3H]-SR-141716A 1 nM; membranes of HEK293 cells expressing hCB1; Ki from IC50 by Cheng-Prusoff
T1 construct: expressed in transfected cells; host or cells: HEK293 cells
Protocol: The binding of compounds of Formula I to recombinant human CB1 receptors was determined in vitro by standard methods, with reference to the procedure described by Rinaldi-Carmona et al. (Rinaldi-Carmona, M., Pialot, F., Congy, C., Redon, E., Bart, F., Bachy, A., Breliere, J. C., Soubre, P., LeFur, G., Life Sci. 1996, 58(15), 1239-1247). Membranes were prepared from HEK293 cells expressing recombinant hCB1 receptors. Binding assays are performed in a total volume of 250 μL, containing [^3H]-SR-141716A (1 nM final concentration), membranes and test compound. Non-specific binding is determined using CP55,940 (10 μM). Serial dilutions are performed starting from test compounds as 10 mM solutions in DMSO. Compounds are tested over the concentration range 10^−10 M to 10^−5 M. Ki values are calculated from IC50 values using the Cheng-Prusoff equation.

T1 sequence (P21554 whole entry): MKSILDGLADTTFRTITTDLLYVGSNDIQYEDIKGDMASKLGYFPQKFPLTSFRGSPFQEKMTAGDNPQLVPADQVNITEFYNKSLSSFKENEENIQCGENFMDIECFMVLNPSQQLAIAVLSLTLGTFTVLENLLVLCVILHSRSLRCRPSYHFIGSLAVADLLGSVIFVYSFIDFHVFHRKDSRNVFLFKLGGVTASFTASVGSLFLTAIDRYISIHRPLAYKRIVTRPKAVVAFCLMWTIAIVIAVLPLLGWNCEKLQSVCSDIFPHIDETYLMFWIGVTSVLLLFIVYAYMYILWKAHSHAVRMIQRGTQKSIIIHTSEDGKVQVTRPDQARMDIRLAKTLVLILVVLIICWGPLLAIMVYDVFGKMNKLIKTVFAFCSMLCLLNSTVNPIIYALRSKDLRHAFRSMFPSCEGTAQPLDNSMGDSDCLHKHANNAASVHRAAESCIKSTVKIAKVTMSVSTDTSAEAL

melting point [°C] | Ki [1] [nM] | SMILES
163 to 165.5 |  | NC(=O)N1CC(OCc2cccc(Cl)c2)C1 [Example 44, 3-((3-chlorophenyl)methoxy)-azetidine-1-carboxamide]
110.5 to 112 |  | CCC(OC1CN(C(N)=O)C1)c1cccc(C(F)(F)F)c1 (stereo not shown) [Example 42]
76 to 78 |  | C[C@@H](O)CNC(=O)N1CC(OCc2ccc(Cl)cc2)C1 [Example 36]
 | 285 | C=CCNC(=O)N1CC(OC(c2ccc(Cl)cc2)c2ccc(Cl)cc2)C1 [Example 6, 3-(Bis(4-chlorophenyl)methoxy)-N-(2-propenyl)azetidine-1-carboxamide]

Source: patent US20060276452A1, “Use of azetidinecarboxamide derivatives in therapy” (VERNALIS RESEARCH LIMITED, priority 2003, published 2006)
